Source: patent US20220251081A1, “HETEROBICYCLIC INHIBITORS OF MAT2A AND METHODS OF USE FOR TREATING CANCER” (priority 2019, published 2022)

Columns and labels:
[1] = target: T1, MAT2A homodimer (Homo sapiens, UniProt P31153); experiment: Biochemical assay: inhibition of recombinant MAT2A homodimer (phosphate release, PiColorLock Gold); conditions: MAT2A IC50 score; read-out: Enzyme Inhibition
T1 construct: inferred from Ni sepharose purification and imidazole elution; made in house; host or cells: Sf9 insect cells, recombinant baculovirus (Bac to Bac, pFASTBAC1 vector)
How it was run: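 Baculovirus/Sf9-expressed, Ni-purified MAT2A at 4 μg/mL in pH 8.0 Tris/KCl/MgCl2/EDTA/BSA buffer, preincubated with compound 60 min at 25 °C. Started with ATP and L-methionine substrate mix (500 μM and 40 μM, stock in mix), 60 min at 25 °C; released phosphate by PiColorLock Gold against a phosphate standard curve.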

[2] = tested on: SAM in HCT116 human colon carcinoma cell line with deleted MTAP gene; experiment: Cellular assay of target engagement (SAM): SAM level by LC-MS/MS after 72 hrs; assay type: cell-based; conditions: HCT-116, IC50 score, read-out: Cell 72 h SAM Inhibition (MTAP −/−)
How it was run: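 MTAP-deleted HCT116 cells were seeded, then exposed 24 h later to a 10-point 3-fold compound dilution series for 72 h at 37 °C/5% CO2. They were lysed in cold 80% methanol/acetic acid containing d3-SAM internal standard. SAM was quantified by LC-MS/MS (MRM, m/z 399.2→250.1).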

[3] = tested on: HCT116 MTAP-/-; experiment: Inhibition of cellular proliferation, 4 days, Cell Titer Glo, HCT116 MTAP-/-; assay type: cell-based; conditions: Homo sapiens, HCT-116, 96 h, IC50 score, read-out: 4 Day Relative Growth Inhibition (MTAP −/−)
How it was run: (§1)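 Isogenic human colon carcinoma lines differing only in MTAP status, plated 24 h before dosing, then exposed for 4 days at 37 °C/5% CO2 to a 10-point 3-fold dilution series (0.2% DMSO final). Read-out is Cell Titer Glo ATP luminescence, blank-subtracted and normalised to in-plate DMSO control, plotted as % proliferation change versus log molar concentration.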

[4] = tested on: HCT116 MTAP +/+; experiment: Inhibition of cellular proliferation, 4 days, Cell Titer Glo, HCT116 MTAP+/+; assay type: cell-based; conditions: Homo sapiens, HCT-116, 96 h, IC50 score, read-out: 4 Day Relative Growth Inhibition (MTAP +/+)
How it was run: as §1

T1 sequence (P31153 whole entry): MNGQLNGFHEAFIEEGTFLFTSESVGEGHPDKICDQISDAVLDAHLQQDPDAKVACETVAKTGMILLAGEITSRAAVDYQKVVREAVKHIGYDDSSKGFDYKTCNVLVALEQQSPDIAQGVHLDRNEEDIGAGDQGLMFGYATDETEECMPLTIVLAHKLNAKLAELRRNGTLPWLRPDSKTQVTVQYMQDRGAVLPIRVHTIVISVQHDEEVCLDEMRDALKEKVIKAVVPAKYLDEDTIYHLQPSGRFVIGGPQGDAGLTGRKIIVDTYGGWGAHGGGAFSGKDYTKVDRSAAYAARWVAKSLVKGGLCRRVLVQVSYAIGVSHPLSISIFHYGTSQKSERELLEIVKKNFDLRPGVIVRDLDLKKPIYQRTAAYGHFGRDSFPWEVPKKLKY

Row | Structure (SMILES) | IC50 [1] | IC50 [2] | IC50 [3] | IC50 [4]
1 | [2H]C([2H])([2H])Oc1ccc(-n2c(=O)c(-c3ccc4nn(C)cc4c3)cc3ccc(OC([2H])([2H])C([2H])([2H])[2H])nc32)cc1 [Example 301] | < 100 nM | < 100 nM | < 100 nM | 100 to 1000 nM
2 | [2H]C([2H])([2H])Oc1ccc(-n2c(=O)c(-c3ccc4nn(C)cc4c3)cc3ccc(OCCF)nc32)cc1 [Example 302] | < 100 nM | < 100 nM | < 100 nM | 100 to 1000 nM
3 | [2H]C([2H])([2H])Oc1ccc(-n2c(=O)c(-c3ccc4nn(C([2H])([2H])[2H])cc4c3)cc3ccc(OC([2H])([2H])C([2H])([2H])[2H])nc32)cc1 [Example 303] | < 100 nM | < 100 nM | < 100 nM | 100 to 1000 nM
4 | [2H]C([2H])([2H])Oc1ccc(-n2c(=O)c(-c3ccc4nn(C)cc4c3)cc3ccc(O[C@@H](C)C(F)(F)F)nc32)cc1 [Example 305] | < 100 nM | < 100 nM | < 100 nM | ≥ 1000 nM
5 | CCNc1ccc2cc(-c3ccc4nn(C)cc4c3)c(=O)n(-c3ccc(C)nc3)c2n1 [Example 307] | < 100 nM | < 100 nM | < 100 nM | ≥ 1000 nM
6 | CCNc1ccc2cc(-c3ccc4nn(C)cc4c3)c(=O)n(-c3ccc(C4CC4)nc3)c2n1 [Example 308] | < 100 nM | < 100 nM | < 100 nM | ≥ 1000 nM
7 | CCNc1ccc2cc(-c3ccc4nn(C)cc4c3)c(=O)n(-c3ccc(OC(F)F)cc3)c2n1 [Example 309] | < 100 nM | < 100 nM | < 100 nM | < 100 nM
8 | CCNc1ccc2cc(-c3ccc4nn(C)cc4c3)c(=O)n(-c3ccc(Cl)cc3)c2n1 [Example 310] | < 100 nM | < 100 nM | < 100 nM | 100 to 1000 nM
9 | COc1ccc(-n2c(=O)c(-c3ccc4nn(C)cc4c3)cc3ccc(OCC(F)(F)F)nc32)cc1 [Example 313] | < 100 nM | < 100 nM | < 100 nM | ≥ 1000 nM
10 | Cn1cc2cc(-c3cc4ccc(OCC(F)(F)F)nc4n(-c4ccc(C5CC5)cc4)c3=O)ccc2n1 [Example 314] | < 100 nM | < 100 nM | < 100 nM | ≥ 1000 nM
11 | [2H]C([2H])([2H])Oc1ccc(-n2c(=O)c(-c3ccc4nn(C)cc4c3)cc3ccc(OCC(F)(F)F)nc32)cc1 [Example 316] | < 100 nM | < 100 nM | < 100 nM | ≥ 1000 nM
12 | CCOc1ccc2cc(-c3ccc4nn(C)cc4c3)c(=O)n(-c3ccc(Br)cc3)c2n1 [Example 317] | < 100 nM | < 100 nM | 100 to 1000 nM | 100 to 1000 nM
13 | Cn1cc2cc(-c3cc4ccc(OCC(F)F)nc4n(-c4ccc(Br)cc4)c3=O)ccc2n1 [Example 318] | < 100 nM | < 100 nM | < 100 nM | 100 to 1000 nM
14 | Cn1cc2cc(-c3cc4ccc(OCC(F)(F)F)nc4n(-c4ccc(Br)cc4)c3=O)ccc2n1 [Example 319] | < 100 nM | < 100 nM | < 100 nM | ≥ 1000 nM
15 | Cn1cc2cc(-c3cc4ccc(OCC(F)(F)F)nc4n(-c4ccc(N)nc4)c3=O)ccc2n1 [Example 320] | < 100 nM | < 100 nM | < 100 nM | 100 to 1000 nM
16 | Cn1cc2cc(-c3cc4ccc(OCC(F)F)nc4n(-c4ccc(OC(F)F)cc4)c3=O)ccc2n1 [Example 321] | < 100 nM | < 100 nM | < 100 nM | ≥ 1000 nM
17 | [2H]C([2H])([2H])Oc1ccc(-n2c(=O)c(-c3ccc4nn(C)cc4c3)cc3ccc(OC(C)C)nc32)cc1 [Example 322] | < 100 nM | < 100 nM | < 100 nM | ≥ 1000 nM
18 | [2H]C([2H])([2H])Oc1ccc(-n2c(=O)c(-c3ccc4nn(C)cc4c3)nc3ccc(OCC)nc32)cc1 [Example 324] | < 100 nM | < 100 nM | < 100 nM | 100 to 1000 nM
